Laboratory results: patent US20150010479A1, “TREATMENT OF MICROBIAL INFECTIONS” (SINCLAIR PHARMACEUTICALS LIMITED, priority 2012, published 2015)
Values joined by “and” are separate entries in the source; they are usually repeats but may differ in a detail not shown here. Equal values may be shown once. Read-outs that look alike come from different tables or passages of the source.

Columns and labels:
P. gingivalis [1] = test: CPC and delmopinol combination (chequerboard assay), FICi/FBCi; type: cell-based, Porphyromonas gingivalis; settings: CPC + delmopinol, Standard broth
Description: (§1) 190 μl of normal broth (standard assays) or broth A was added to wells of a 96 well plate. […] 5 μl of each dilution of delmopinol was added to the appropriate wells of the 96 wells plate. The contents of each well were mixed thoroughly and then 100 μl volume was discarded.
(§2) Plates were then incubated as described above. […] Following incubation the plates were examined and growth/no growth recorded for every well sample (used for FBC determination).
(§3) FBCi were calculated in the same manner but using MBC data.
(§4) The FICi and FBCi were interpreted using the same parameters as set out above.

Prv. nigrescence [2] = test: as above; type: cell-based, Prevotella nigrescence
Description: as §1, §2, §3, §4

C. albicans [3] = test: as above; type: cell-based, Candida albicans; settings: CPC + delmopinol
Description: as §1, §2, §3, §4

C. albicans [4] = test: MIC/MBC of CPC or delmopinol alone; type: cell-based; settings: Candida albicans, compound alone
Description: (§5) The final mixture was then sterilized by filtration using a […] PES filter (Nalgene, 169-0045).
(§6) Bacterial preparations were prepared using freshly grown cultures on solid media. Several loop-fulls of culture were transferred to 10-20 ml of the appropriate broth and vortexed gently until a fine suspension was produced. The initial OD600 nm of the cell suspensions was measured and adjusted to 0.2 to give a colony count of 1×10^8 cfu/ml. Final inocula were prepared by diluting the adjusted cell suspensions in appropriate broth as detailed below:
(§7) The broths were added to wells in columns 1, 11 (negative control, broth only) and 12 (positive control).
(§8) 100 μl of normal broth (standard assay) or broth A was added to wells in columns 2-10.
(§9) After mixing in column 10, 100 μl was discarded. 5 μl of the appropriate solvent was added to wells in column 12, mixed and 100 μl discarded.
(§10) Finally, 100 μl of inoculum (prepared in either normal broth or 2× broth A) was added to the wells in columns 1-10 and 12 and the plates were incubated as described above.

E. coli = test: MIC/MBC of CPC or delmopinol alone; type: cell-based; settings: Escherichia coli, compound alone
Description: as §5, §6, §7, §8, §9, §10

P. gingivalis [5] = test: MIC/MBC of CPC or delmopinol alone; type: cell-based; settings: Porphyromonas gingivalis
Description: as §5, §6, §7, §8, §9, §10

Prv. nigrescence [6] = test: MIC/MBC of CPC or delmopinol alone; type: cell-based; settings: Prevotella, compound alone
Description: as §5, §6, §7, §8, §9, §10

S. aureus = test: MIC/MBC of CPC or delmopinol alone; type: cell-based; settings: Staphylococcus aureus
Description: as §5, §6, §7, §8, §9, §10

E. faecalis = test: MIC/MBC of CPC or delmopinol alone; type: cell-based, Entercoccus faecalis; settings: Enterococcus faecalis, compound alone
Description: as §5, §6, §7, §8, §9, §10

[7] = Decapinol base (Broth A), no delmopinol or sodium benzoate present, read-out: Activity alone Decapinol base MBC
[8] = Decapinol base (Broth A), no delmopinol or sodium benzoate present, read-out: Activity alone Decapinol base MIC
[9] = Standard broth, read-out: Activity alone Standard MBC
[10] = Standard broth, read-out: Activity alone Standard MIC

In the case of `CCCCCCCCCCCCCCCC[n+]1ccccc1` [CPC, cetylpyridinium chloride], the “Combination with delmopinol (FIC) Standard FICi” value (P. gingivalis [1]) is reported as 0.62p, the “Combination with delmopinol (FIC) Decapinol base FBCi” value (Prv. nigrescence [2]) is reported as 0.53p and the “Combination with delmopinol (FIC) Decapinol base FICi” value (Prv. nigrescence [2]) is reported as 0.5 s. The “Combination with delmopinol (FIC) Standard FBCi” value (Prv. nigrescence [2]) was 0.79, the “Combination with delmopinol (FIC) Decapinol base FBCi” value (C. albicans [3]; Decapinol base (Broth A)) was 0.65p and the “Combination with delmopinol (FIC) Decapinol base FICi” value (C. albicans [3]; Decapinol base (Broth A)) was 0.99. The “Combination with delmopinol (FIC) Standard FBCi” value (C. albicans [3]; Standard broth) was 0.68p.
With `CCCC(CCC)CCCC1COCCN1CCO` (centres unmarked) [Delmopinol, 3-(4-propylheptyl)-4-(2-hydroxyethyl)morpholine] the MBC (C. albicans [4]; [7]) was 120 µg/mL and 460 µM, the MIC (C. albicans [4]; [8]) was 120 µg/mL and 460 µM and the MBC (C. albicans [4]; [9]) was 500 µg/mL and 1840 µM. The MIC (C. albicans [4]; [10]) was 500 µg/mL and 1840 µM, the MBC (E. coli; [7]) was 250 µg/mL and 920 µM and the MIC (E. coli; [8]) was 250 µg/mL and 920 µM. For the same molecule, the MBC (E. coli; [9]) was 250 µg/mL and 920 µM, the MIC (E. coli; [10]) was 250 µg/mL and 920 µM and the MBC (P. gingivalis [5]; read-out: Activity alone Decapinol base MBC) was 31.2 µg/mL. The MIC (P. gingivalis [5]; read-out: Activity alone Decapinol base MIC) was 31.2 µg/mL, the MBC (P. gingivalis [5]; read-out: Activity alone Standard MBC) was 31.2 µg/mL and the MBC (P. gingivalis [5]; P. gingivalis, compound alone, Decapinol base (Broth A), no delmopinol or sodium benzoate present, read-out: Activity alone Decapinol base MBC) was 120 µM. The MIC (P. gingivalis [5]; P. gingivalis, compound alone, Decapinol base (Broth A), no delmopinol or sodium benzoate present, read-out: Activity alone Decapinol base MIC) was 1.2 µM, the MBC (P. gingivalis [5]; P. gingivalis, compound alone, Standard broth, read-out: Activity alone Standard MBC) was 120 µM and the MIC (P. gingivalis [5]; P. gingivalis, compound alone, Standard broth, read-out: Activity alone Standard MIC) was 1.95 µg/mL. The MBC (Prv. nigrescence [6]; [7]) was 125 µg/mL and 460 µM, the MIC (Prv. nigrescence [6]; [8]) was 31.2 µg/mL and 120 µM and the MBC (Prv. nigrescence [6]; [9]) was 62.5 µg/mL and 230 µM. For the same molecule, the MIC (Prv. nigrescence [6]; [10]) was 62.5 µg/mL and 230 µM, the MIC (S. aureus; read-out: Activity alone Standard MIC) was 125 µg/mL and the MBC (S. aureus; S. aureus, compound alone, Decapinol base (Broth A), no delmopinol or sodium benzoate present, read-out: Activity alone Decapinol base MBC) was 250 µg/mL and 920 µM. For the same molecule, the MIC (S. aureus; S. aureus, compound alone, Decapinol base (Broth A), no delmopinol or sodium benzoate present, read-out: Activity alone Decapinol base MIC) was 250 µg/mL and 920 µM, the MBC (S. aureus; S. aureus, compound alone, Standard broth, read-out: Activity alone Standard MBC) was 250 µg/mL and 920 µM and the MIC (S. aureus; S. aureus, compound alone, Standard broth, read-out: Activity alone Standard MIC) was 460 µM. The MBC (E. faecalis; [7]) was 250 µg/mL and 920 µM, the MIC (E. faecalis; [8]) was 250 µg/mL and 920 µM and the MBC (E. faecalis; [9]) was 250 µg/mL and 920 µM. The MIC (E. faecalis; [10]) was 250 µg/mL and 920 µM.
